The values below come from paper PMC6009937, “Comparing hydrazine-derived reactive groups as inhibitors of quinone-dependent amine oxidases” (Journal of Enzyme Inhibition and Medicinal Chemistry, 2017).

The conditions of data set [1]: stated in the text without reference; cited from earlier work.
The next data set deals with T1, Lysyl oxidase (LOX) (Bos taurus, UniProt P33072).
T1 construct: LOX was isolated from bovine aorta; from tissue; host or cells: bovine aorta
T1 sequence (P33072 170-418): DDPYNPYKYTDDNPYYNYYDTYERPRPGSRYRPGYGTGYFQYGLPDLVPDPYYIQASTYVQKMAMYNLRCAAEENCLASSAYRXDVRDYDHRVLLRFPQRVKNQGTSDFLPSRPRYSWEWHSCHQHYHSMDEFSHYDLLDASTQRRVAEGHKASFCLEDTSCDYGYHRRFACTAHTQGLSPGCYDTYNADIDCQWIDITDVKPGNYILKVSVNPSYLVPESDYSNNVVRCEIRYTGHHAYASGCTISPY
Briefly: LOX activity assay (Amplex UltraRed/HRP fluorescence) after preincubation of enzyme with inhibitor. Type of data set: biochemical, bovine. On the procedure: LOX was isolated from bovine aorta at 4 °C using slight modifications of previously published procedures. All steps were carried out at in 16 mM phosphate, pH 7.8 (buffer B). After blending the aorta in buffer B containing 400 mM NaCl and 1 mM EDTA to remove soluble contaminants, the enzyme was extracted with buffer B containing 4 M urea and 1 mM EDTA. The crude enzyme extract was filtered, diluted with an equal volume of buffer B to obtain a urea concentration of 2 M, and loaded onto a DEAE column. After washing with buffer B containing 400 mM NaCl, the enzyme was eluted with buffer B containing 400 mM NaCl and 6 M urea. The urea concentration was reduced to 4 M by adding buffer B, and the solution was added to a slurry of ceramic hydroxyapatite in buffer B containing 4 M urea. After stirring, the supernatant was removed by filtration and dialyzed overnight against buffer B. The solution was added to a slurry of ceramic hydroxyapatite in buffer B, washed with small portions of 1 M phosphate and then buffer B, and then eluted with buffer B containing 6 M urea and 500 mM NaCl. After concentration to about 20 mL, the protein was applied to a Sephacryl S-200 gel filtration column preequilibrated with buffer B containing 50 mM NaCl, 1 mM EDTA, and 6 M urea and eluted with the same buffer. Active fractions were concentrated to 1 mL. Total protein concentration for 6 M urea solutions[33] was determined by its absorption at 280 nm using a molar extinction coefficient of 8.39 × 10^4 M^−1 cm ^−1.
(§1) The activity assay is adopted from the method described by Palamakumbura et al.[35]. Enzyme and inhibitor were incubated at 37 °C for the desired inhibition time, diluted into the assay mixture, and analyzed by fluorescence (Agilent Technologies Cary Eclipse Fluorescence Spectrometer, Cary Eclipse Software, 37 °C, λex = 568 and λem = 581 nm). The assay was carried out in boric acid buffer (50 mM, pH 8.2) with 1.2 M urea for LOX or in phosphate buffer (0.1 M, pH = 7.0) for LSDAO. The final reagent concentrations in the assay mixture were 10 mM cadaverine, 10 μM Amplex UltraRed (Life Technologies, Carlsbad, CA), and 1 U/mL horse radish peroxidase (Amresco, Solon, OH).
(§2) The enzyme activity, which is proportional to the rate of increase in fluorescence, was measured for each experiment. Residual activity was calculated by dividing each rate by a maximum rate determined in the absence of inhibitor such that [residual activity] = ([rate with inhibitor] – [baseline rate])/([maximum rate] – [baseline rate]). […] The residual activities from replicate experiments were averaged. For each inhibitor concentration, log([average residual activity]) was plotted against inhibition time. Linear lines of best fit forced through the origin were calculated for each data set using Graphpad Prism 5.0b (La Jolla, CA). For each inhibitor, the slopes of these lines (min^−1) were plotted as –1/slope against 1/[inhibitor concentration] to produce a Kitz–Wilson plot.
(§3) To quantify the selectivity of each inhibitor, we defined a numerical “selectivity factor” as the inhibitor's IC50 value for LOX divided by its IC50 value for LSDAO (Figure 3(C)).

Data set [2] addresses T2, lentil seedling diamine oxidase (LSDAO) (Lens culinaris, UniProt P49252).
T2 construct: Eight-day-old lentil seedlings (Lens esculenta) were blended and extracted; from tissue; host or cells: eight-day-old lentil seedlings (Lens esculenta)
T2 sequence (P49252 19-667): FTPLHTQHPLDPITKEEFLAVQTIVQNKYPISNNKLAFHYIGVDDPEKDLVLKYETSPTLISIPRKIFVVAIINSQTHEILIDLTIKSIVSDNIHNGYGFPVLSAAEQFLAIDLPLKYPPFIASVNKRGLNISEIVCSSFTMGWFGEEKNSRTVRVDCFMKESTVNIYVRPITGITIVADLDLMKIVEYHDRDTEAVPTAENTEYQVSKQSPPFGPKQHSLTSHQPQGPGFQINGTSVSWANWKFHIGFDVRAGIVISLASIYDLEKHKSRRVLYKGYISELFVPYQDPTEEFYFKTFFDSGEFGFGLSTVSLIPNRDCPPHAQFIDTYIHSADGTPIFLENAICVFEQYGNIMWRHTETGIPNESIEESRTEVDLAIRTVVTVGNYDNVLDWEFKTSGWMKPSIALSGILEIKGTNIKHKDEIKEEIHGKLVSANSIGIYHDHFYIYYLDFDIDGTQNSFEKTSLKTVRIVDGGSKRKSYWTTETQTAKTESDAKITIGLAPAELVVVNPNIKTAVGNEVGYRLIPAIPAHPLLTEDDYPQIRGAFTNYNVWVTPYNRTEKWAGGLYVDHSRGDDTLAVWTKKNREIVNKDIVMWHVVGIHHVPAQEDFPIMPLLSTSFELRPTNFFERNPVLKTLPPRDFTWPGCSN
Briefly: LSDAO activity assay (Amplex UltraRed/HRP fluorescence) after preincubation of enzyme with inhibitor. The data set is classed as biochemical. On the procedure: The LSDAO extraction process was carried out at 4 °C according to the method of Floris et al.[30] with slight modifications. Eight-day-old lentil seedlings (Lens esculenta) were blended and extracted with phosphate buffer (5 mM, pH 6.0, buffer A). Ammonium sulfate (230 g/L, 40% saturation) was used to precipitate contaminants, and then additional ammonium sulfate (125 g/L, 60% saturation) was used to precipitate the LSDAO. The crude precipitate was redissolved, dialyzed against buffer A, applied to a DEAE column, and eluted with buffer A. Active fractions were adjusted to pH 6.5, applied to a CM resin column, and eluted with 5 mM phosphate buffer, pH 6.5. Active fractions were concentrated and the buffer was changed to 10 mM phosphate, pH 7.0 before the protein was applied to a Sephacryl S-300 column and eluted with the same buffer. The concentration of the LSDAO dimer was determined from its absorption at 278 nm in 0.1 M phosphate buffer[31] using a molar extinction coefficient of 2.45 × 10^5 M^−1 cm^−1.
as §1, §2, §3
From the slopes and y-intercepts of these lines, the kinetic parameters KI (the reversible binding constant) and k2 (the rate constant for irreversible reaction) (Figure 5(A)) can be calculated.

The subject of data set [3] is LOX. As to conditions: literature data reprocessed by Kitz-Wilson analysis, cited from earlier work.
For data set [4], the system named is LOX. Also noted: method as in PMID 6131892. Conditions: cited from earlier work.
A further data set deals with rat lysyl oxidase. Also noted: method as in PMID 19524603. As to conditions: cited from earlier work.
Data set [5] has as its system LOX. Set-up: method as in PMID 2571459. Conditions: inhibition time not specified; read-out: IC50 LOX in vitro; cited from earlier work.
Data set [6] has as its system LOX. Also noted: method as in PMID 2888772. Conditions: chick embryos; cited from earlier work.
The mark [7] stands for this setting: 10 min, read-out: Average Percent Activity Remaining, LSDAO.
Where [8] appears, read: Kitz-Wilson plot, pH 8.0 and 37 °C.

“And” between values parts separate entries of the source, which are not always exact repeats. Identical values can stand only once. Like-named read-outs stand apart in the source and are kept apart here.

For `NNc1ccccc1` [compound 1, phenylhydrazine, reference compound], the “pKa of conjugate acid” value in data set [1] is reported as 5. Besides, the IC50 – broadly, the concentration that inhibits the measured activity by half – against Lysyl oxidase (LOX) worked out at 6 µM. On Lysyl oxidase (LOX) (10-min preincubation, LOX vs LSDAO), the “Selectivity factor (LOX IC50 value divided by LSDAO IC50 value)” value came out at 600. In data set [2], this compound came in with an IC50 of 10 nM. In data set [2] (setting [7]), the remaining activity – broadly, the share of the control activity or signal that is left under treatment – at 0.005 µM amounted to 80%; the remaining activity at 0.0075 µM turned out to be 62%; the remaining activity at 0.01 µM is 50%; the remaining activity at 0.015 µM is 13%. Moreover, in data set [2] (setting [7]), the remaining activity at 0.03 µM worked out at 0%, the remaining activity at 0.1 µM was found to be 0% and the remaining activity at 0.5 µM was 0%. The “LOX k2 (range)” value in the data set with LOX [3] is 0.32 (0.16 to >10) min^-1 and 0.32 min^-1. Further, the KI (inactivation) in the data set on LOX [3] (read-out: LOX KI^-1 (range)) is 13 µM.

In the case of `N#CCCN` [compound 2, β-aminopropionitrile], in the data set on LOX [4] (10 μM, 2-h incubation), the “Inhibition of LOX at 10 μM” value is recorded as “full inhibition”. In addition, the concentration for half-maximal inhibition (IC50) in the data set on LOX [4] (2-h incubation) was 200 nM. Moreover, in the data set on LOX [4] (setting [8]), the KI (inactivation) was 6 µM and the “k2 LOX” value is 0.16 min⁻¹.

As for `NNC(N)=O` [semicarbazide], the “Inhibition of lysyl oxidase in vivo compared to BAPN” value in the data set on rat lysyl oxidase is recorded as “nearly as effective as BAPN”. For the same compound, the IC50 in the data set on LOX [5] is 30 µM.

Consider `NNC(=O)c1ccncc1` [hydrazide of isonicotinic acid], for which the “Inhibition of LOX in vivo” value in the data set with LOX [6] is reported as “can partially inhibit LOX”.
